US8846947B2, “Benzimidazoles and related analogs as sirtuin modulators” (GlaxoSmithKline LLC, priority 2008, dated 2014)

Molecular target: T1, SIRT1 (Homo sapiens, UniProt Q96EB6)
T1 sequence (Q96EB6 1-747): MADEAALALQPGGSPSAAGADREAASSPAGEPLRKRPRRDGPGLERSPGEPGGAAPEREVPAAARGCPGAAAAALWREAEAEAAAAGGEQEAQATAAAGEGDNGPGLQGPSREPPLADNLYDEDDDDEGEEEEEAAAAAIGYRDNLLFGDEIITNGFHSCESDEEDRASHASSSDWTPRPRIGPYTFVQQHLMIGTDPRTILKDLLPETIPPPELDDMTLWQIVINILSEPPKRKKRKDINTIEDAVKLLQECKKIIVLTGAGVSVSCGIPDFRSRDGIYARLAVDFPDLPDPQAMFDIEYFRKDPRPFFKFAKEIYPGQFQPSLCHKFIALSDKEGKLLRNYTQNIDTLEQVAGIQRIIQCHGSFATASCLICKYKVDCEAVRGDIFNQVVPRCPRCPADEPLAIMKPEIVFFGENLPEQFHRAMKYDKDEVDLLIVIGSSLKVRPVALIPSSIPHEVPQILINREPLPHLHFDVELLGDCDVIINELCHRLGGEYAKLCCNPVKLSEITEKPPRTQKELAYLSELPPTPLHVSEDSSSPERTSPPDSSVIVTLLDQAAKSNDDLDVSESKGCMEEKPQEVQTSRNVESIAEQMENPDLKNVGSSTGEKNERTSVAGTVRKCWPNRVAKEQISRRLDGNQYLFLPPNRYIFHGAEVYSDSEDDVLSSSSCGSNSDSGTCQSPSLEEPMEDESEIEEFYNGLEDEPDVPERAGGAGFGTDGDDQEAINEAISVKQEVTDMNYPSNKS
Assay: Mass spectrometry based SIRT1 deacetylase activation assay (acetylated p53-derived peptide substrate)
Format: biochemical
Settings: 0.5 μM peptide substrate, 120 μM βNAD+, 10 nM SIRT1, 25 min at 25° C.; for EC1.5: read-out: EC1.5

Row | Structure (SMILES) | Fold Act. (percent maximum fold activation) | EC1.5 [nM]
1 | O=C(Nc1cccnn1)c1cccc2[nH]c(-c3ccc(Cl)cc3C(F)(F)F)nc12 [Compound 432] | A (Fold activation >200%) | < 1000
2 | O=C(NCc1ccccn1)c1cccc2[nH]c(-c3ccc(Cl)cc3C(F)(F)F)nc12 [Compound 433] | B (Fold Activation <200%) | 1000 to 25000
3 | O=C(NC1CCOCC1)c1cccc2[nH]c(-c3ccc(Cl)cc3C(F)(F)F)nc12 [Compound 434] | B (Fold Activation <200%) | 1000 to 25000
4 | O=C(NCc1ccccn1)c1cccc2[nH]c(-c3ccc(F)cc3C(F)(F)F)nc12 [Compound 435] | B (Fold Activation <200%) | 1000 to 25000
5 | O=C(NC1CCOCC1)c1cccc2[nH]c(-c3ccc(F)cc3C(F)(F)F)nc12 [Compound 436] | B (Fold Activation <200%) | 1000 to 25000
6 | O=C(NC1CCOCC1)c1cccc2[nH]c(-c3cc(F)ccc3C(F)(F)F)nc12 [Compound 437] | B (Fold Activation <200%) | > 25000
7 | O=C(NC1CCNCC1)c1cccc2[nH]c(-c3cc(F)ccc3C(F)(F)F)nc12 [Compound 438] | B (Fold Activation <200%) | > 25000
8 | CN1CCOc2cc(-c3nc4c(C(=O)Nc5ccccn5)cccc4[nH]3)cnc21 [Compound 439] | B (Fold Activation <200%) | > 25000
9 | Cc1cnc(NC(=O)c2cccc3[nH]c(-c4cnc5c(c4)OCCN5C)nc23)s1 [Compound 440] | A (Fold activation >200%) | < 1000
10 | O=C(Nc1nccs1)c1cccc2[nH]c(-c3ccc(OC4CCNC4)cc3)nc12 (centres unmarked) [Compound 441] | A (Fold activation >200%) | < 1000
11 | O=C(Nc1ccccn1)c1cccc2[nH]c(-c3ccc(OC4CCNC4)cc3)nc12 (centres unmarked) [Compound 442] | A (Fold activation >200%) | < 1000
12 | O=C(NC1CCOC1=O)c1cccc2[nH]c(-c3ccnn3-c3ccccc3)nc12 (centres unmarked) [Compound 443] | B (Fold Activation <200%) | > 25000
13 | CCCN1CCc2cc(-c3nc4c(C(=O)Nc5nccs5)cccc4[nH]3)ccc21 [Compound 444] | B (Fold Activation <200%) | > 25000
14 | CC1(C)Cc2cc(-c3nc4c(C(=O)Nc5nccs5)cccc4[nH]3)ccc2O1 [Compound 445] | A (Fold activation >200%) | 1000 to 25000
15 | O=C(Nc1nccs1)c1cccc2[nH]c(-c3ccnc(N4CCCC4)c3)nc12 [Compound 446] | B (Fold Activation <200%) | < 1000
16 | O=C(Nc1nccs1)c1cccc2[nH]c(-c3ccc(OC4CCNCC4)cc3)nc12 [Compound 447] | A (Fold activation >200%) | < 1000
17 | O=C(Nc1nccs1)c1cccc2[nH]c(-c3cc(N4CCOCC4)ccc3C(F)(F)F)nc12 [Compound 448] | A (Fold activation >200%) | < 1000
18 | O=C(Nc1ccccn1)c1cccc2[nH]c(-c3cc(N4CCOCC4)ccc3C(F)(F)F)nc12 [Compound 449] | A (Fold activation >200%) | < 1000
19 | O=C(Nc1cccnc1)c1cccc2[nH]c(-c3cc(N4CCOCC4)ccc3C(F)(F)F)nc12 [Compound 450, 2-(5-morpholino-2-(trifluoromethyl)phenyl)-N-(pyridin-3-yl)-1H-benzo[d]imidazole-4-carboxamide] | A (Fold activation >200%) | < 1000
20 | O=C(Nc1cccnn1)c1cccc2[nH]c(-c3ccccc3C(F)(F)F)nc12 [Compound 451] | A (Fold activation >200%) | < 1000
21 | Cc1cc(NC(=O)c2cccc3[nH]c(-c4ccc(Cl)cc4C(F)(F)F)nc23)no1 [Compound 452] | A (Fold activation >200%) | < 1000
22 | O=C(NC1CCNCC1)c1cccc2[nH]c(-c3ccc(Cl)cc3C(F)(F)F)nc12 [Compound 453] | B (Fold Activation <200%) | > 25000
23 | O=C(NC1CCNCC1)c1cccc2[nH]c(-c3ccc(F)cc3C(F)(F)F)nc12 [Compound 454] | B (Fold Activation <200%) | > 25000

Row | Structure (SMILES) | Fold Act. (percent maximum fold activation) | EC1.5 [nM]
24 | Cc1cc(NC(=O)c2cccc3[nH]c(-c4cc(F)ccc4C(F)(F)F)nc23)no1 [Compound 455] | A (Fold activation >200%) | < 1000
25 | O=C(Nc1cccnn1)c1cccc2[nH]c(-c3cc(F)ccc3C(F)(F)F)nc12 [Compound 456] | A (Fold activation >200%) | < 1000
26 | CN1CCOc2cc(-c3nc4c(C(=O)Nc5cccnn5)cccc4[nH]3)cnc21 [Compound 457] | A (Fold activation >200%) | < 1000
27 | Cc1nc(NC(=O)c2cccc3[nH]c(-c4cnc5c(c4)OCCN5C)nc23)sc1C [Compound 458] | A (Fold activation >200%) | < 1000
28 | O=C(Nc1nccs1)c1cccc2[nH]c(-c3ccccc3OC3CCNC3)nc12 (centres unmarked) [Compound 459, 2-(2-(pyrrolidin-3-yloxy)phenyl)-N-(thiazol-2-yl)-1H-benzo[d]imidazole-4-carboxamide] | A (Fold activation >200%) | 1000 to 25000
29 | O=C(Nc1ccccn1)c1cccc2[nH]c(-c3ccccc3OC3CCNC3)nc12 (centres unmarked) [Compound 460] | A (Fold activation >200%) | 1000 to 25000
30 | Cc1cc(C)nc(NC(=O)c2cccc3[nH]c(-c4cnc5c(c4)OCCN5C)nc23)c1 [Compound 461] | A (Fold activation >200%) | < 1000
31 | O=C(Nc1nccs1)c1cccc2[nH]c(-c3cccc(OC4CCNC4)c3)nc12 (centres unmarked) [Compound 462] | A (Fold activation >200%) | < 1000
32 | O=C(Nc1ccccn1)c1cccc2[nH]c(-c3cccc(OC4CCNC4)c3)nc12 (centres unmarked) [Compound 463] | A (Fold activation >200%) | 1000 to 25000
33 | Cc1cc(NC(=O)c2cccc3[nH]c(-c4ccc(F)cc4C(F)(F)F)nc23)no1 [Compound 464] | A (Fold activation >200%) | < 1000
34 | O=C(Nc1cccnn1)c1cccc2[nH]c(-c3ccc(F)cc3C(F)(F)F)nc12 [Compound 465] | A (Fold activation >200%) | < 1000
35 | Cc1cc(NC(=O)c2cccc3[nH]c(-c4ccnn4-c4ccccc4)nc23)no1 [Compound 466] | A (Fold activation >200%) | 1000 to 25000
36 | O=C(Nc1cccnn1)c1cccc2[nH]c(-c3ccnn3-c3ccccc3)nc12 [Compound 467] | A (Fold activation >200%) | 1000 to 25000
37 | O=C(NCc1ccccn1)c1cccc2[nH]c(-c3ccnn3-c3ccccc3)nc12 [Compound 468] | B (Fold Activation <200%) | > 25000
38 | Cc1cc(NC(=O)c2cccc3[nH]c(-c4cccc(N5CCOCC5)c4)nc23)no1 [Compound 469] | A (Fold activation >200%) | 1000 to 25000
39 | O=C(Nc1cccnn1)c1cccc2[nH]c(-c3cccc(N4CCOCC4)c3)nc12 [Compound 470] | A (Fold activation >200%) | 1000 to 25000
40 | O=C(NCc1ccccn1)c1cccc2[nH]c(-c3cccc(N4CCOCC4)c3)nc12 [Compound 471] | A (Fold activation >200%) | 1000 to 25000
41 | O=C(Nc1ccccn1)c1cccc2[nH]c(-c3ccccc3OCCN3CCCC3)nc12 [Compound 472] | B (Fold Activation <200%) | 1000 to 25000
42 | CN1CCOc2cc(-c3nc4c(C(=O)Nc5cnccn5)cccc4[nH]3)cnc21 [Compound 473] | A (Fold activation >200%) | 1000 to 25000
43 | O=C(Nc1ccccn1)c1cccc2[nH]c(-c3ccccc3OCCN3CCOCC3)nc12 [Compound 474] | A (Fold activation >200%) | 1000 to 25000
44 | Cc1cnc(NC(=O)c2cccc3[nH]c(-c4ccccc4OCCN4CCOCC4)nc23)s1 [Compound 475] | A (Fold activation >200%) | 1000 to 25000
45 | Cc1nc(NC(=O)c2cccc3[nH]c(-c4ccccc4OCCN4CCOCC4)nc23)sc1C [Compound 476] | A (Fold activation >200%) | 1000 to 25000
46 | Cn1cc(-c2nc3c(C(=O)Nc4nccs4)cccc3[nH]2)c(C(F)(F)F)n1 [Compound 477] | A (Fold activation >200%) | < 1000
